This is an account of results in US11510859B2, “Method for improving aqueous solubility of water-insoluble or slightly water-soluble drugs” (MARINOMED BIOTECH AG, priority 2015, dated 2022).

What all share (type): physicochemical
Series [1] is described as follows: Solubility of budesonide in 0.25x McIlvaine buffer with/without propylene glycol, saponin, dexpanthenol (Examples 5-9). As for the experimental part:
Budesonide was analyzed by RP-HPLC (UV absorbance detection at 244 nm) using isocratic elution with 55% acetonitrile 0.01% TFA/45% water 0.01% TFA at 1 ml/min for 7 min on an Agilent Zorbax SB C18 3.5 μm 4.6×150 mm column with 4×4 mm RP8 pre-column. From the budesonide-containing samples 40 μl were injected and analyzed.
Buffer • B . . . 5% propylene glycol • C . . . 10% propylene glycol • D . . . 15% propylene glycol • y-axis . . . concentration of dissolved budesonide
FIGS. 2a and 2b refer to the concentrations of budesonide still dissolved after one month of storage at ambient temperature (T˜20-25° C.) in 0.25× McIlvaine buffer containing 5% (FIG. 2a) and 10% (FIG. 2b) propylene glycol (maximum concentration 550 μg/ml budesonide). […] Further increase of escin concentration remains substantially without additional benefit. […] 0% Dexpanthenol • B . . . 1% Dexpanthenol • C . . . 2% Dexpanthenol • D . . . 5% Dexpanthenol • y-axis . . . μg/ml dissolved budesonide • x-axis . . . w/v % Escin
FIGS. 3a and 3b are based on data sets identical to those of FIG. 2a/2b but after 3 months of storage at ambient temperature (T˜20-25° C.). • FIG. 3a: 5% propylene glycol; FIG. 3b: 10% propylene glycol • A . . . 0% Dexpanthenol • B . . . 1% Dexpanthenol • C . . . 2% Dexpanthenol • D . . . 5% Dexpanthenol • y-axis . . . μg/ml dissolved budesonide • x-axis . . . w/v % Escin
FIG. 4 represents that 0.03% w/v escin and 5% v/v dexpanthenol independently increase the solubility of budesonide in McIlvaine buffer in the absence of propylene glycol. […] Yet, the solubility of budesonide in this buffer system, i.e., in the absence of propylene glycol, remains at or below the corresponding values achieved in the presence of propylene glycol alone, i.e., in the absence of escin and dexpanthenol (see FIGS. 2a, b and 3a, b). The only exception being the value at column D which moderately exceeds the solubility values achieved with propylene glycol alone. • A . . . 0% Escin/0% Dexpanthenol • B . . . 0% Escin/5% Dexpanthenol • C . . . 0.03% Escin/0% Dexpanthenol • D . . . 0.03% Escin/5% Dexpanthenol • y-axis . . . concentration of dissolved budesonide in [μg/ml]
For Quillaja saponins, but not for glycyrrhizin, this applies also at a saponin concentration of 0.1%. […] Escin • B . . . Glycyrrhizin • C . . . Quillaja extract • * . . . w/v % Saponin component (escin, glycyrrhizin or Quillaja ext.) • # . . . v/v % Dexpanthenol • y-axis . . . concentration of dissolved budesonide

Series [2] can be described thus: Budesonide solubility and storage stability in the presence of carrageenan (Examples 1, 2, 12, 13). The conditions noted are these: 1.2 g/L iota-carrageenan, optionally 0.4 g/L kappa-carrageenan; 5% or 10% propylene glycol. As for the experimental part: Samples of series A (0% dexpanthenol): 2.5 ml solution containing the respective escin concentration (McIlvaine 0.01%, 0.02%, 0.03% or McIlvaine buffer) were mixed with 5 ml carrageenan stock solution and 0.5 ml budesonide pre-solution and filled up to 10 ml with distilled water.
Samples of series B (2% dexpanthenol): 2.5 ml solution containing the respective escin concentration (McIlvaine 0.01%, 0.02%, 0.03% or McIlvaine buffer) were mixed with 0.2 ml dexpanthenol, 5 ml carrageenan stock solution and 0.5 ml budesonide pre-solution and filled up to 10 ml with distilled water. […]
After 3 months storage at room temperature, samples were taken and centrifuged for 11 min at 15700 rcf. The clear supernatant was filled into glass vials and the concentration of dissolved budesonide (maximal 500 μg/ml) was measured in duplicates by HPLC.
Budesonide was analyzed by RP-HPLC (UV absorbance detection at 244 nm) using isocratic elution with 55% acetonitrile 0.01% TFA/45% water 0.01% TFA at 1 ml/min for 7 min on an Agilent Zorbax SB C18 3.5 μm 4.6×150 mm column with 4×4 mm RP8 pre-column. From the budesonide-containing samples 40 μl were injected and analyzed. […]

A short description of series [3]: Saturation concentrations of drugs in buffered solvent, HPLC of supernatant (Example 4). The conditions noted are these: for Saturation concentration in 10% propylene glycol or DMSO without escin or dexpanthenol / Saturation concentration in 10% propylene glycol or DMSO, 0.1% escin and 5% dexpanthenol: McIlvaine buffer pH 6.0, compound pre-dissolved in propylene glycol. Here is the method:
250 μl “McIlvaine 0.1%” were mixed with 50 μl dexpanthenol stock solution, brought to 900 μl with distilled water, and combined and vigorously mixed with 100 μl experimental compound pre-dissolved resp. pre-suspended in propylene glycol. Alternative solutions with compound pre-dilutions/pre-suspensions in DMSO were prepared. Samples were centrifuged for 10 min at 15800 rcf. Aliquots of the clear supernatants were transferred into autosampler glass vials and the content of the dissolved experimental compounds was analyzed by HPLC using isocratic elution with 70% or 80% acetonitrile 0.01% TFA/[…] or 30% water 0.01% TFA at 1 ml/min and 50° C. for 10 min on an Agilent Zorbax Eclipse Plus C18 column (3.5 μm, 4.6×150 mm) and UV absorbance detection at the wavelengths appropriate for the respective experimental compound.

A short description of series [4]: Micelle formation of saponins, Hoechst 33342 fluorescence. Here is the method: In water and aqueous buffers containing a detergent below the critical micelle concentration fluorescence of the Hoechst 33342 dye is almost undetectable. Upon increase of the detergent concentration until the critical micelle concentration is reached micelles begin to form and the dye starts getting incorporated into the micelles, whereupon an increase of a fluorescence signal can be detected. For the experiments of this example, the dye was mixed at a final concentration of 7 μM with aqueous buffer comprising different concentrations of saponin in black, flat and clear bottom 96-well plates and emission spectra were measured using a microplate reader (filters used: ex=355 nm and em=460 nm). Finally, data were background corrected.

As to `CCCC1O[C@@H]2C[C@H]3[C@@H]4CCC5=CC(=O)C=C[C@]5(C)[C@H]4[C@@H](O)C[C@]3(C)[C@]2(C(=O)CO)O1` (stereo partly shown) [Budesonide], the “effect of escin on solubility of the steroid” value in series [1] (0.01-0.02% w/v escin, 5% or 10% propylene glycol, one month storage at ambient temperature) is “dramatically increases the solubility”. In series [1] (0.03% escin and 5% dexpanthenol, McIlvaine buffer, no propylene glycol), the “combined effect of escin and dexpanthenol on budesonide solubility” value is “synergy seems to occur”. In series [1] (3 months storage at ambient temperature, particularly at 5% propylene glycol and very low escin), the “effect of dexpanthenol on stability of the experimental solutions” value is “seems to improve the stability”. The “effect of glycyrrhizin and Quillaja saponaria extract saponins on steroid solubility” value in series [1] (in the absence of dexpanthenol) is “without substantial effect”. Moreover, the “effect of carrageenans on solubility of the steroid” value in series [2] was “do not substantially interfere with the solubility”.
As for `COc1cc(/C=C/C(=O)CC(=O)/C=C/c2ccc(O)c(OC)c2)ccc1O` [Curcumin], the “Saturation concentration in 10% propylene glycol or DMSO, escin and 5% dexpanthenol” value in series [3] (0.03% escin) was determined as 126 µg/mL. For the same molecule, the “Saturation concentration in 10% propylene glycol or DMSO, saponin and 5% dexpanthenol” value in series [3] (2% glycyrrhizin instead of escin) is 285 µg/mL. Moreover, the “Saturation concentration in 10% propylene glycol or DMSO without escin or dexpanthenol” value in series [3] was less than 0.2 µg/mL.
As for `CC(=O)O[C@H]1C(=O)[C@@]2(C)[C@H]([C@H](OC(=O)c3ccccc3)[C@]3(O)C[C@H](OC(=O)[C@H](O)[C@@H](NC(=O)c4ccccc4)c4ccccc4)C(C)=C1C3(C)C)[C@]1(OC(C)=O)CO[C@@H]1C[C@@H]2O` [Paclitaxel], in series [3], the “Saturation concentration in 10% propylene glycol or DMSO without escin or dexpanthenol” value amounted to 2.71 µg/mL; the “Saturation concentration in 10% propylene glycol or DMSO, 0.1% escin and 5% dexpanthenol” value was 32.7 µg/mL.
Take `CC[C@@H]1/C=C(\C)C[C@H](C)C[C@H](OC)[C@H]2O[C@@](O)(C(=O)C(=O)N3CCCC[C@H]3C(=O)O[C@H](/C(C)=C/[C@@H]3CC[C@H](Cl)[C@H](OC)C3)[C@H](C)[C@@H](O)CC1=O)[C@H](C)C[C@@H]2OC` [Pimecrolimus]: the “Saturation concentration in 10% propylene glycol or DMSO, saponin and 5% dexpanthenol” value in series [3] (1% glycyrrhizin instead of escin) was found to be 34.5 µg/mL. In series [3], the “Saturation concentration in 10% propylene glycol or DMSO without escin or dexpanthenol” value was less than 0.1 µg/mL.
For the molecule `C=CC[C@@H]1/C=C(\C)C[C@H](C)C[C@H](OC)[C@H]2O[C@@](O)(C(=O)C(=O)N3CCCC[C@H]3C(=O)O[C@H](/C(C)=C/[C@@H]3CC[C@@H](O)[C@H](OC)C3)[C@H](C)[C@@H](O)CC1=O)[C@H](C)C[C@@H]2OC.O` [Tacrolimus/FK506, Tacrolimus], in series [3], the “Saturation concentration in 10% propylene glycol or DMSO without escin or dexpanthenol” value worked out at 132 µg/mL; the “Saturation concentration in 10% propylene glycol or DMSO, 0.1% escin and 5% dexpanthenol” value was found to be 774 µg/mL.
For `CC1(C)[C@@H](O[C@H]2O[C@H](C(=O)O)[C@@H](O)[C@H](O)[C@H]2O[C@@H]2O[C@H](C(=O)O)[C@@H](O)[C@H](O)[C@H]2O)CC[C@]2(C)[C@H]3C(=O)C=C4[C@@H]5C[C@@](C)(C(=O)O)CC[C@]5(C)CC[C@@]4(C)[C@]3(C)CC[C@@H]12` [glycyrrhizin], the “concentration sufficient to trigger the formation of micelles (same RFU level)” value in series [4] (Hoechst 33342 dye 7 μM, room temperature) is on record as 0.5%. The “increase of required concentration relative to escin” value in series [4] (same fluorescence level) turned out to be 25 fold.
